For test [1], the system named is luciferase light signal from pIB102EL (yopE-luxAB, wild-type). Kind of test: microbe, parasite or virus in culture. Type of test: cell-based, Yersinia pseudotuberculosis. Conditions: for inhibition at 5 µM / inhibition at 10 µM / inhibition at 20 µM / inhibition at 50 µM / inhibition at 100 µM: Yersinia pseudotuberculosis, read-out: Inhibition (%) of the luciferase light signal; for Inhibition (%) of the luciferase light signal: strain pIB102EL, Table 2C.

Test [2] deals with luciferase light signal from pIB29EL (yopE-luxAB). Kind of test: microbe, parasite or virus in culture. In kind it is cell-based, Yersinia pseudotuberculosis. Conditions: for Inhibition (%) of the luciferase light signal: strain pIB29EL, Table 2C; for IC50: read-out: IC50 (concentration resulting in 50% reduction of luciferase light emission).

Where two headings read alike, the source gives them in different places.

As for `NC(=O)C(=O)N/N=C/c1cc(Br)ccc1O` [Compound 22], in test [1], the inhibition at 5 µM stood at 0%, the inhibition at 10 µM amounted to 4%, the inhibition at 20 µM stood at 24% and the inhibition at 50 µM was 66%. Further, the inhibition at 100 µM in test [1] came out at 82%.

Consider `O=C(N/N=C/c1ccc(O)c(O)c1O)c1ccco1` [Compound 34], for which, in test [1], the inhibition at 5 µM is 1%, the inhibition at 10 µM was determined as 5%, the inhibition at 20 µM was 10% and the inhibition at 50 µM amounted to 26%. The inhibition at 100 µM in test [1] came out at 56%.

Regarding `O=C(N/N=C/c1cc(Cl)cc(Cl)c1O)c1ccccc1` [Compound 35], the “Inhibition (%) of the luciferase light signal” value (“Inhibition (%)” for short) stood at 0% in test [1] (5 μM); 0% in test [1] (10 μM); 5% in test [1] (20 μM); 21% in test [1] (50 μM); 43% in test [1] (100 μM).

Regarding `O=C(N/N=C/c1ccc(O)c(O)c1O)c1ccccc1` [Compound 36], the “Inhibition (%)” value in test [1] (5 μM) is listed as 5%; in test [1] (10 μM) it was 10%; in test [1] (20 μM), 15%; in test [1] (50 μM), 24%; in test [1] (100 μM), 54%.

Regarding `CCN(CC)c1ccc(/C=N/NC(=O)c2cccnc2)c(O)c1` [Compound 37], in test [1], the inhibition at 5 µM was 5%, the inhibition at 10 µM came out at 8%, the inhibition at 20 µM was 21% and the inhibition at 50 µM turned out to be 30%. Besides, the inhibition at 100 µM in test [1] stood at 32%.

Take `O=C(N/N=C/c1ccc(O)cc1O)c1ccc([N+](=O)[O-])cc1` [Compound 38]: the “Inhibition (%)” value in test [1] (5 μM) turned out to be 4%; in test [1] (10 μM), 10%; in test [1] (20 μM), 13%; in test [1] (50 μM) it was 23%; in test [1] (100 μM), 36%.

In the case of `CC(=NNC(=O)c1cccnc1)c1cc(Br)cc(Br)c1O` [Compound 39], the “Inhibition (%)” value in test [1] (5 μM) turned out to be 0%; in test [1] (10 μM), 3%; in test [1] (20 μM), 4%; in test [1] (50 μM), 13%; in test [1] (100 μM), 24%.

Take `Nc1ccc(C(=O)N/N=C/c2cc(I)cc(I)c2O)cc1` [Compound 40]: the “Inhibition (%)” value in test [1] (5 μM) was found to be 3%; in test [1] (10 μM) it was 11%; in test [1] (20 μM), 18%; in test [1] (50 μM), 41%; in test [1] (100 μM) it was 50%.

As for `O=C(N/N=C/c1cc(I)cc(I)c1O)c1ccc([N+](=O)[O-])cc1` [Compound 41], the “Inhibition (%)” value in test [1] (5 μM) is on record as 3%; in test [1] (10 μM), 13%; in test [1] (20 μM) it was 33%; in test [1] (50 μM) it was 48%; in test [1] (100 μM), 44%.

As for `CC(=O)Oc1c(Cl)cc(Cl)c(Cl)c1C(=O)Nc1ccc(SC(F)(F)F)cc1` [Compound 47], the “Inhibition (%)” value in test [2] (5 μM) is reported as 55%; in test [2] (10 μM) it was 61%; in test [2] (20 μM) it was 73%; in test [2] (50 μM), 90%; in test [2] (100 μM), 90%.

For the compound `O=C(Nc1cc(Cl)ccc1F)c1cc(I)cc(I)c1O` [Compound 48], the “Inhibition (%)” value in test [2] (5 μM) was found to be 36%; in test [2] (10 μM), 75%; in test [2] (20 μM), 88%; in test [2] (50 μM), 89%; in test [2] (100 μM), 88%.

`CC(=O)Oc1c(I)cc(I)cc1C(=O)Nc1cc(Cl)ccc1F` [Compound 49]: the “Inhibition (%)” value is 24% in test [2] (5 μM); 34% in test [2] (10 μM); 63% in test [2] (20 μM); 89% in test [2] (50 μM); 88% in test [2] (100 μM).

Take `O=C(Nc1ccc(Br)cc1)c1cc(I)ccc1O` [Compound 50]: the “Inhibition (%)” value turned out to be 57% in test [2] (5 μM); 69% in test [2] (10 μM); 62% in test [2] (20 μM); 72% in test [2] (50 μM); 70% in test [2] (100 μM).

As to `CC(=O)Oc1ccc(I)cc1C(=O)Nc1ccc(Br)cc1` [Compound 51], the “Inhibition (%)” value in test [2] (5 μM) came to 91%; in test [2] (10 μM), 87%; in test [2] (20 μM), 89%; in test [2] (50 μM), 87%; in test [2] (100 μM), 85%.

`O=C(Nc1ccc(SC(F)(F)F)cc1)c1cc2cc(Br)ccc2c(Br)c1O` [Compound 53]: the “Inhibition (%)” value is given as 11% in test [2] (5 μM); 38% in test [2] (10 μM); 43% in test [2] (20 μM); 58% in test [2] (50 μM); 68% in test [2] (100 μM).

For the compound `O=C(Nc1ccc(SC(F)(F)F)cc1)c1cccc(Cl)c1O` [Compound 54], the “Inhibition (%)” value in test [2] (5 μM) amounted to 41%; in test [2] (10 μM), 63%; in test [2] (20 μM), 86%; in test [2] (50 μM) it was 89%; in test [2] (100 μM), 87%.

For `O=C(Nc1ccc([N+](=O)[O-])cc1Cl)c1cc(Cl)ccc1O` [Compound 55], the “Inhibition (%)” value worked out at 85% in test [2] (5 μM); 96% in test [2] (10 μM); 96% in test [2] (20 μM); 94% in test [2] (50 μM); 94% in test [2] (100 μM).

Turning to `CC(=O)Oc1ccc(Cl)cc1C(=O)Nc1ccc([N+](=O)[O-])cc1Cl` [Compound 56], the “Inhibition (%)” value in test [2] (5 μM) is 77%; in test [2] (10 μM), 90%; in test [2] (20 μM) it was 91%; in test [2] (50 μM), 91%; in test [2] (100 μM) it was 90%.

`O=C(Nc1cccc(Cl)c1)c1cc(Cl)ccc1NS(=O)(=O)c1cccc2nsnc12` [Compound 57]: the “Inhibition (%)” value in test [2] (5 μM) is 0%; in test [2] (10 μM), 7%; in test [2] (20 μM) it was 26%; in test [2] (50 μM), 49%; in test [2] (100 μM) it was 55%.

Turning to `O=C(Nc1ccc(Cl)cc1)c1ccccc1NS(=O)(=O)c1cccc2nsnc12` [Compound 58], the “Inhibition (%)” value in test [2] (5 μM) was determined as 4%; in test [2] (10 μM), 5%; in test [2] (20 μM) it was 10%; in test [2] (50 μM), 11%; in test [2] (100 μM) it was 15%.

Consider `O=C(Nc1ccc(Cl)c(Cl)c1)c1ccccc1NS(=O)(=O)c1cccc2nsnc12` [Compound 59], for which the “Inhibition (%)” value in test [2] (5 μM) is given as 0%; in test [2] (10 μM) it was 0%; in test [2] (20 μM), 0%; in test [2] (50 μM), 7%; in test [2] (100 μM) it was 10%.

As to `CC(=O)Oc1ccccc1C(=O)Nc1ccc(Cl)cc1` [Compound 60], the “Inhibition (%)” value in test [2] (5 μM) is reported as 0%; in test [2] (10 μM), 21%; in test [2] (20 μM) it was 65%; in test [2] (50 μM) it was 89%; in test [2] (100 μM) it was 89%.

In the case of `NC(=O)C(=O)N/N=C/c1cc(Br)cc(Br)c1O` [Compound 61], the “Inhibition (%)” value is 7% in test [2] (5 μM); 9% in test [2] (10 μM); 19% in test [2] (20 μM); 32% in test [2] (50 μM); 55% in test [2] (100 μM).

For `CC(=O)Oc1ccc(I)cc1C(=O)Nc1ccc(Cl)cc1` [Compound 62], the “Inhibition (%)” value in test [2] (5 μM) is recorded as 95%; in test [2] (10 μM), 92%; in test [2] (20 μM), 91%; in test [2] (50 μM), 91%; in test [2] (100 μM), 90%.

On to `CCn1cc(C(=O)O)c(=O)c2ccc(C)nc21` [Nalidixic acid, reference compound], for which the IC50 in test [2] (Yersinia pseudotuberculosis) came to 15 µM. In test [2] (known antibiotics, pIB29EL), the “Inhibition of light-emission (in words)” value is “dose-dependent inhibition of light-emission”.

On to `[H]/N=C(/N)N[C@H]1[C@H](O)[C@@H](O)[C@H](O[C@@H]2O[C@@H](C)[C@](O)(C=O)[C@H]2O[C@@H]2O[C@@H](CO)[C@H](O)[C@@H](O)[C@@H]2NC)[C@@H](N/C(N)=N\[H])[C@@H]1O` [Streptomycin, reference compound], for which the IC50 in test [2] (Yersinia pseudotuberculosis) was determined as 4 µM. In addition, the “Inhibition of light-emission (in words)” value in test [2] (known antibiotics, pIB29EL) is “dose-dependent inhibition of light-emission”.

Turning to Polymixin B [reference compound], in test [2], the “Inhibition of light-emission (in words)” value was “dose-dependent inhibition of light-emission” and the IC50 amounted to 0.15 µM.

What is called inhibition is the share of the control response that was lost under treatment.

The record behind these values is patent US7351861B2 (priority 2002, dated 2008).
